Results on one compound are retold here after patent publication CN110483432A, “一类丙烯酸类化合物及其制备方法、药物组合物和用途” (Shanghai Institute of Materia Medica of CAS, priority 2018, dated 2019).

The structures appear in SMILES notation.

One series deals with CREB/CRTC2 (Homo sapiens, UniProt P16220+Q53ET0). As to the kind of experiment: Mammalian two-hybrid (CREB-GAL4-BD / CRTC2-VP16-AD, Gal4-luciferase reporter) test of inhibition of CREB/CRTC2 protein interaction in HEK293 cells. The format is cell-based. The conditions noted are these: 50 μM final concentration; HEK293 two-hybrid activation model (Forsklin); overnight; read-out: relative reporter gene activity (vs solvent control DMSO, set to 100%).
Sequence of CREB/CRTC2 (P16220 whole entry, the tested form may be a part): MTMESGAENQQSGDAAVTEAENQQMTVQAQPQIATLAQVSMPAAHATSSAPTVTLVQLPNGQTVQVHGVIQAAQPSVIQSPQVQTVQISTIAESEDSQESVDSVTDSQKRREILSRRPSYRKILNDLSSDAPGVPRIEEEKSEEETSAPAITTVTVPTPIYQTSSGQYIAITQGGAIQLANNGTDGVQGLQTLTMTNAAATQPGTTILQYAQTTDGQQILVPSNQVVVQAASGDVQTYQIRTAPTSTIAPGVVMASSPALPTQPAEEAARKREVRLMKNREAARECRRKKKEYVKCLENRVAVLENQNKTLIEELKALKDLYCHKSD
Sequence of CREB/CRTC2 (Q53ET0 whole entry, the tested form may be a part): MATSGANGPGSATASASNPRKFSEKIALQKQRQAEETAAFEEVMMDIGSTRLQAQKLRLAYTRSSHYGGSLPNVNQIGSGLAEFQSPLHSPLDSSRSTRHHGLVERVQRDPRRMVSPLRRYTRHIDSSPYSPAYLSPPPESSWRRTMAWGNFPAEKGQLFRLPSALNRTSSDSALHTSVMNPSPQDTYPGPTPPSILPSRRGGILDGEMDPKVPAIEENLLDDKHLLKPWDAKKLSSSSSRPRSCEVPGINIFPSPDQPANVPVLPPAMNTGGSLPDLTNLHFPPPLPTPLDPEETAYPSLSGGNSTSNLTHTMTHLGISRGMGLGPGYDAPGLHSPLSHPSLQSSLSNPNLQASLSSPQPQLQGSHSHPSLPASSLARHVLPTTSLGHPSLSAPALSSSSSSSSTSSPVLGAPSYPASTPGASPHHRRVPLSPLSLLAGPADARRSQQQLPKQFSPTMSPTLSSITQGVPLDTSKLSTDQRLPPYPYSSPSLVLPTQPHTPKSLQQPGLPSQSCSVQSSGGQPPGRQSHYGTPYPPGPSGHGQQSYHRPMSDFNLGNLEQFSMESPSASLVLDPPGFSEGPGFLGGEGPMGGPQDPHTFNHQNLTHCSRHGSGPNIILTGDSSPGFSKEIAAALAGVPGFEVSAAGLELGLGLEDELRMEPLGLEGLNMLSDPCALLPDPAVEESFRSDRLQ

A short description of series [1]: Cytotoxicity test in HEK293 cells (CCK8). The conditions noted are these: human, overnight, HEK293, CCK8 OD450, read-out: cell viability. In kind it is cell-based.
Series [2] relates to CREB phosphorylation (Ser133) (CREB的磷酸化(Ser133)). As to the kind of experiment: Western blot of CREB phosphorylation (Ser133) in glucagon signalling pathway. The format is cell-based, mouse. The settings on record: 20 μM, 1 h preincubation, glucagon 100 nM, 30 min, primary hepatocytes or liver tissue.

On to `O=C(/C=C/c1cccc(-c2ccccc2)c1)N1C(=O)OC[C@@H]1c1ccccc1` [A57, (S,E)-3-(3-([1,1’-联苯基]-3-基)丙烯酰)-4-苯基噁唑烷-2-酮], for which the remaining activity at 50 µM at CREB/CRTC2 is < 30%. For the same compound, the viability at 50 µM in series [1] was ~100%. For the same compound, the “effect on glucagon-stimulated CREB phosphorylation level” value in series [2] was “没有显著的影响”.
